Reference: PMC9723630 (2022)
One block for each compound: values may come before it.

Key:
[1] = tested on: QD2-l-2bp (DNA, G4) GGTTGGCGGCACGGGTTGG; assay: ITC; details: K+ (20 mM potassium phosphate, 100 mM KCl; 120 mM K+); pH 7.0, 5% DMSO, 40 °C; site 1 of 2
[2] = tested on: TBA (DNA, G4) GGTTGGTGTGGTTGG; assay: ITC; details: K+ (20 mM potassium phosphate, 100 mM KCl; 120 mM K+); pH 7.0, 5% DMSO, 40 °C
[3] = tested on: Q3-sbl (DNA, G4) TTAGGGTGGTAGGGTGGGGAAGG; assay: ITC; details: K+ (20 mM potassium phosphate, 100 mM KCl; 120 mM K+), pH 7.0, 5% DMSO, 40 °C
[4] = tested on: QD2-l (DNA, G4) GGTTGGCGCGAAGCATTCGCGGGTTGG; assay: CD melting at 295 nm; details: K+ (10 mM potassium phosphate), pH 7.0, 5 µM DNA, 1:1 ligand (5 µM), free Tm 50.3 °C
[5] = tested on: D2-HP (DNA, hairpin) CGCGAAGCATTCGCG; assay: ITC; details: K+ (20 mM potassium phosphate, 100 mM KCl; 120 mM K+); pH 7.0, 5% DMSO, 40 °C
[6] = tested on: D3-HP (DNA, hairpin) CTAGTCATTTTGACTAG; assay: ITC; details: K+ (20 mM potassium phosphate, 100 mM KCl; 120 mM K+), pH 7.0, 5% DMSO, 40 °C
[7] = tested on: QD3-sbl (DNA, G4) TTAGGTGGGTAGGGTGGGCTAGTCATTTTGACTAGG; assay: ITC; details: K+ (20 mM potassium phosphate, 100 mM KCl; 120 mM K+), pH 7.0, 5% DMSO, 40 °C
[8] = tested on: QD2-l (DNA, G4) GGTTGGCGCGAAGCATTCGCGGGTTGG; assay: ITC; details: K+ (20 mM potassium phosphate, 100 mM KCl; 120 mM K+), pH 7.0, 5% DMSO, 40 °C, site 1 of 2
[9] = tested on: Q3-sbl2 (DNA, G4) TTAGGTGGGTAGGGTGGGTGTG; assay: NMR titration; details: K+ (10 mM potassium phosphate); pH 7.0, 30 °C, 0.75 mM DNA; stacks on 5'-tetrad
[10] = tested on: QD3-sbl (DNA, G4) TTAGGTGGGTAGGGTGGGCTAGTCATTTTGACTAGG; assay: NMR titration and solution structure; details: K+ (10 mM potassium phosphate for structure; 120 mM K+ for titration); pH 7.0, 30 °C titration; intercalation at quadruplex-duplex junction, slow exchange

Compound: CCN(CC)CCCNC(=O)c1ccc(-c2c3cccc(C)c3[n+](C)c3c2[nH]c2c(C)cccc23)cc1
Ka [1]: 7.1e+06 ± 77000 M⁻¹
Ka [2]: 26000 ± 8600 M⁻¹
Ka ([3]; site 1 of 2): 3.2e+06 ± 1.4e+06 M⁻¹
Tm increase [4]: ~ 13 °C
Ka [5]: 45000 ± 14000 M⁻¹
Ka [6]: 16000 ± 2200 M⁻¹
Ka ([7]; site 1 of 2): 1.3e+07 ± 2.9e+06 M⁻¹
Ka ([8]; Table S13 prints error 1.4×10^6): 8.3e+06 ± 120000 M⁻¹

Compound: CCOCCCNC(=O)c1ccc(-c2c3cccc(C)c3[n+](C)c3c2[nH]c2c(C)cccc23)cc1
Ka [8]: 2.6e+06 ± 700000 M⁻¹

Compound: CN(C)CCCNc1c2ccccc2nc2c1[nH]c1ccccc12
Ka ([3]; site 1 of 2): 2.1e+06 ± 610000 M⁻¹
Tm increase [4]: ~ 5 °C
Ka ([6]; site 1 of 2): 1.3e+06 ± 120000 M⁻¹
Ka ([7]; site 1 of 2): 1.1e+07 ± 3.3e+06 M⁻¹

Compound: CN(C)CCN1C(=O)c2ccc3c4c(ccc(c24)C1=O)C(=O)N(CCN(C)C)C3=O
Ka [3]: 95000 ± 11000 M⁻¹
Ka [6]: 72000 ± 23000 M⁻¹
Ka ([7]; authors: competing sites may not be separated): 120000 ± 25000 M⁻¹

Compound: Cc1cccc2c1[nH]c1c(-c3ccc(C(=O)NCCCN(C)CCCN)cc3)c3cccc(C)c3[n+](C)c12
Ka [8]: 7.9e+06 ± 900000 M⁻¹

More lines, now with the values ahead:

Ka ([3]; site 1 of 2): 3e+07 ± 2.3e+06 M⁻¹
Ka ([6]; site 1 of 2): 2.9e+06 ± 690000 M⁻¹
Ka ([7]; site 1 of 2, authors: competing sites may not be separated): 1.4e+07 ± 6.1e+06 M⁻¹
Compound: CN(C)c1ccc(Nc2c3ccc(NC(=O)CCN4CCCC4)cc3nc3cc(NC(=O)CCN4CCCC4)ccc23)cc1

Ka [3]: 170000 ± 67000 M⁻¹
Ka [6]: 41000 ± 2700 M⁻¹
Ka ([7]; site 1 of 2): 1.1e+06 ± 27000 M⁻¹
Compound: CN1C(=Cc2cc[n+](C)c3ccccc23)Sc2ccccc21

binding [9]: yes
Tm increase ([4]; complex 74 °C): ~ 24 °C
binding [10]: yes
Compound: C[n+]1cc(NC(=O)c2ccc3ccc4ccc(C(=O)Nc5cc6ccccc6[n+](C)c5)nc4c3n2)cc2ccccc21
